Results published in US20220098197A1, “SALTS OF HETEROCYCLIC COMPOUND AND USE THEREOF” (priority 2019, published 2022).
Values joined by “and” are separate entries in the source; they are usually repeats but may differ in a detail not shown here. Equal values may be shown once.

Experiments:
[1] = Dissolution test of capsules (Chinese Pharmacopoeia 2015, General Method 0931, 2nd Method); assay type: physicochemical
Description: The hydrates obtained hereinabove and the compound of formula A were tested for dissolution rate. The test method was as follows.
Step 1: Pretreating Raw Materials
The samples were passed through a 100 mesh sieve.
Step 2: Blending Raw Materials with Auxiliary Materials
The raw materials and lactose were weighed according to the prescription, mixed in equal increment, sieved and mixed.
The capsules were filled via a capsule filling plate and sealed. The difference of the filling amount was controlled to ±5%. The appearance was inspected to ensure that the sealing was correct and there was no split or deformation.
Test method: dissolution test method (Chinese Pharmacopoeia, edited in 2015, Chapter 4, General Method 0931, the 2nd Method)
Dissolution medium: aqueous solution
Specific test method: The sample was tested following the dissolution test method (Chinese Pharmacopoeia, edited in 2015, Chapter 4, General Method 0931, the 2nd Method). 900 ml aqueous solution was used as the dissolution medium. The speed was 50 rpm. The test was performed in accordance with the method. […] After filtration, the filtrate was precisely measured and quantitatively diluted with the dissolution medium to prepare a solution containing about 10 μg of sample per 1 ml. The absorbance was measured by at 231 nm by UV-Vis spectrophotometry (Chinese Pharmacopoeia, edited in 2015, Chapter 4, General Method 0931, the 2nd Method). An appropriate amount of the control sample was taken, weighed accurately, dissolved in dissolution medium and diluted quantitatively to prepare a solution containing about 10 μg of the sample per 1 ml, and then measured in the same way. The amount of dissolution per capsule was calculated.

LPS-induced ALI mice = test: LPS-induced ALI model: lung MPO activity assay; assay type: in vivo, Balb/c mice; conditions: CT-NA 10 or 30 mg/kg (P<0.01, dose dependence), Dex 1 mg/kg (P<0.01)
Description: Specific pathogen-free (SPF) Balb/c mice (♂/♀; 20-26 g; 8 weeks old) were purchased from Shanghai SIPPR-BK Experimental Animal Co., Ltd. Mice were kept in an isolated ventilated cage in an environment of 40-60% humidity, 24±2° C., and 12 hrs/12 hrs dark-light cycle, and had free access to food and water. The method for preparing the LPS-induced ALI model was simply described as follows. The mice were randomly divided into a control group (12 mice) and an LPS group (48 mice). The LPS group (48 mice) was further divided into four subgroups (12 mice in each subgroup). The unanaesthetized mice in the four subgroups of LPS were intragastrically administered with normal saline (NS), CT-NA at 10 mg/kg or 30 mg/kg, and Dex at 1 mg/kg, respectively. One hour later, the mice were anesthetized with sodium pentobarbital (intraperitoneal injection at 40 mg/kg), and then subjected to intratracheal instillation of NS to control group and LPS (4 mg/kg) to all LPS subgroups. […] 24 hrs after LPS challenge, the oxygen saturation (SO2) of all mice was measured by a Moor VMS-OXY™ instrument which measured SO2 (%) in the microcirculation at the wavelength range of 500 to 650 nm.
The MPO activity assay procedure was as follows. […] Then MPO activity was determined by measuring the changes in absorbance at 460 nm via the standard curves by using MPO assay kits.

neutrophils = test: PGD2-induced neutrophils migration in vitro, Boyden chamber (Example 2); assay type: cell-based, mice; conditions: pretreatment CT-NA 1 μM or 10 μM, OC459 10 μM; 4 hrs; P<0.01
Description: The method for isolating neutrophils and testing effect of CT-NA on neutrophils migration was briefly described as follows. 1.5% glycogen was injected intragastrically into mice at a dose of 20 ml/kg body weight. 4 hrs later, the mice were euthanized to isolate neutrophils from the peritoneal lavage. Effect of CT-NA on the migration of neutrophils was detected using the Boyden chamber assay kit (3 um pore size, Billerica, Mass.). PGD2 was used as a chemoattractant because the activated PGD2/CRTH2 receptors promoted the neutrophils migration. Firstly, the isolated neutrophils were inoculated at 4×10^5 cells/ml into the upper side of well of the Boyden chamber, and the lower chamber contained different concentrations of PGD2 (0.1, 1 and 10 μM), and the neutrophils were allowed to migrate towards PGD2 for 4 hrs at 37° C. in order to find out the suitable PGD2 concentration. After evaluation of the suitable PGD2 concentration, the migration of neutrophils pretreated with CT-NA (1 and 10 μM) and OC459 (10 μM), another effective CRTH2 inhibitor, toward PGD2 (1 μM) was assessed for 4 hrs.

[2] = system: NF-κB signalling pathway in RAW264.7 macrophages; test: Western blotting of NF-κB signalling pathway, RAW264.7; assay type: cell-based, mouse; conditions: CT-NA 0.5, 1.0, 10, or 100 μM, LPS (100 ng/ml)
Description: The method for total protein extraction and Western blotting determination was as follows. The lung tissue was homogenized in RIPA buffer (0.5M Tris-HCl, pH 7.4, 1.5M NaCl, 2.5% deoxycholic acid, 10% NP-40, 10 mM EDTA) containing protease and phosphatase inhibitors (Sigma-Aldrich, St. Louis, Mo.). RAW264.7 macrophages were seeded into two 6-well plates at 70-80% confluence. After overnight starvation with serum-free RPMI-1640 medium, RAW264.7 macrophages were pretreated with CT-NA (0.5, 1, 10 and 100 μM) for 1 hour. Thereafter, one 6-well plate was treated with LPS (100 ng/ml) for 1 hour, and the other was treated with PGD2 (10 μM) for 1 hour. After washing three times with PBS, the cells were directly lysed for 30 minutes with shaking in RIPA buffer containing protease and phosphatase inhibitors in an ice environment. Then, the lysate was centrifuged at 12,300×g for 15 minutes at 4° C., and the supernatant was collected. […] was performed to measure protein concentration. Equal amounts of protein (30 μg) were resolved on 12% SDS-PAGE and transferred to 0.45 um polyvinylidene fluoride (PVDF) membranes (Millipore, Bedford, Mass.). The membranes were blocked with 5% (wt/vol) skimmed milk powder at room temperature for 1-2 hrs to reduce non-specific binding. […]

Q: With `CN([C@@H]1CCc2c(CC(=O)[O-])c3cccnc3n2C1)S(=O)(=O)c1ccc(F)cc1.[Na+]` [Sodium salt hydrate] as the compound, how does the “Dissolution rate, Mean (%), 5 min” value ([1]; mean of 6 capsules, purified water, 50 rpm, 5 min) read?
A: 50.5%

Q: And the “Dissolution rate, Mean (%), 10 min” value ([1]; mean of 6 capsules, purified water, 50 rpm, 10 min)?
A: 76.6%

Q: What about the “Dissolution rate, Mean (%), 15 min” value ([1]; mean of 6 capsules, purified water, 50 rpm, 15 min) of the same compound?
A: 92.1%

Q: And the “Dissolution rate, Mean (%), 20 min” value ([1]; mean of 6 capsules, purified water, 50 rpm, 20 min)?
A: 98.6%

Q: And the “Dissolution rate, Mean (%), 30 min” value ([1]; mean of 6 capsules, purified water, 50 rpm, 30 min)?
A: 100.6%

Q: What about the “Dissolution rate, Mean (%), 45 min” value ([1]; mean of 6 capsules, purified water, 50 rpm, 45 min) of the same compound?
A: 100.8%

Q: And the “dissolution rate (in words)” value ([1]; same method, aqueous dissolution medium)?
A: best dissolution rate

Q: What about the “Dissolution rate, 5 min” value ([1]; single capsules 1-6, purified water, 50 rpm, 5 min, hydrate) of the same compound?
A: 55.8% and 34.3% and 57.9% and 45.5% and 56.7% and 52.8%

Q: What about the “Dissolution rate, 10 min” value ([1]; single capsules 1-6, purified water, 50 rpm, 10 min, hydrate) of the same compound?
A: 77.8% and 82.6% and 69.0% and 73.6% and 62.2% and 94.6%

Q: What about the “Dissolution rate, 15 min” value ([1]; single capsules 1-6, purified water, 50 rpm, 15 min, hydrate) of the same compound?
A: 96.6% and 79.1% and 91.7% and 93.3% and 99.1% and 92.7%

Q: And the “Dissolution rate, 20 min” value ([1]; single capsules 1-6, purified water, 50 rpm, 20 min, hydrate)?
A: 101.8% and 94.8% and 96.2% and 98.3% and 100.1% and 100.2%

Q: What about the “Dissolution rate, 30 min” value ([1]; single capsules 1-6, purified water, 50 rpm, 30 min, hydrate) of the same compound?
A: 103.4% and 100.7% and 98.0% and 99.1% and 102.2% and 100.2%

Q: What about the “Dissolution rate, 45 min” value ([1]; single capsules 1-6, purified water, 50 rpm, 45 min, hydrate) of the same compound?
A: 102.8% and 101.5% and 97.5% and 99.7% and 102.7% and 100.9%

Q: What about the “MPO activity in lung tissues” value (LPS-induced ALI mice) of the same compound?
A: remarkably reduced

Q: And the “neutrophils migration induced by 1 μM PGD2” value (neutrophils)?
A: significantly reduced

Q: What about the “degradation of IκBα and P65 induced by LPS” value [2] of the same compound?
A: strongly reversed

Q: And the “LPS-induced IκBα and P65 activation” value ([2]; dose-dependent)?
A: reduced
